“Also recorded” adds a separate entry of the source.
Experiments:
StxB [1] = assay type: cell-based; details: 20 μM, 45 min at 37° C.
transferrin (Tf) = assay type: cell-based; details: 20 μM, 30 min, 37° C.
StxB [2] = assay type: cell-based
CTxB = assay type: cell-based; details: 20 μM
StxB [3] = assay type: cell-based; details: 20 μM, 30 min, 37° C.
125I-EGF = assay type: cell-based, human
StxB [4] = assay type: cell-based, human
StxB [5] = assay type: cell-based, human; remark: listed apart in the source
CI-MPR = assay type: cell-based, human
TGN46 = assay type: cell-based, human
[6] = test system: vesicular stomatitis virus G protein (VSVG); assay type: cell-based, human

In the case of `CCC(=O)N1CC(=O)Nc2ccc(Br)cc2C1c1ccccc1` (stereo not drawn) [Compound 193, 7-bromo-5-phenyl-4-propionyl-4,5-dihydro-1H-benzo[e][1,4]diazepin-2(3H)-one], the “cellular localisation of STxB” value (StxB [1]) is reported as “accumulation”, the “endocytosis of transferrin (Tf)” value (transferrin (Tf)) is reported as “not altered” and the “reduction of retrograde transport of STxB to the TGN” value (StxB [2]) is reported as 90%. For the same molecule, the “reduction of transport of StxB to the TGN, 4 h after internalization” value (StxB [2]) was 50%, the “inhibition of Stx cytotoxicity” value (Stx1 and Stx2) was 100 fold and the “cellular localisation of CtxB” value (CTxB) was “accumulation”. The apparent side effects (THP1-cells) was “did not cause any apparent side effects”, the “effect on protein biosynthesis” value (HeLa-cells) was “only minor” and the “endocytosis of StxB” value (StxB [3]) was “not altered”. The “effect on lysosomal degradation of 125I-EGF” value (125I-EGF) was “no effect”, the “retrograde transport of StxB to the TGN” value (StxB [4]) was “stark reduction” and the “amount of bound StxB on cells” value (StxB [5]) was “not reduced”. The “steady-state localization of CI-MPR” value (CI-MPR) was “similar”, the “steady-state localization and transport of TGN46” value (TGN46) was “similar; also recorded: not been observed a distinct inhibition; also recorded: did not observe a pronounced effect; also recorded: do not impact distinctly” and the “anterograde transport of GFP-VSVGts045” value [6] was “not significantly reduced”.

Source: patent US9034868B2 (priority 2008, dated 2015)
